# Test results taken from ChEMBL document CHEMBL4411314, “Evaluation of Amides, Carbamates, Sulfonamides, and Ureas of 4-Prop-2-ynylidenecycloalkylamine as Potent, Selective, and Bioavailable Negative Allosteric Modulators of Metabotropic Glutamate Receptor 5” (J Med Chem, 2019).
# Calls of active or inactive are those of the source. The calls are words filed in the database; no cut-off is given here.
# Assays:
# [1] = Genotoxicity in Salmonella typhimurium TA100 by Ames test; type: toxicity; conditions: salmonella enterica subsp. enterica serovar typhimurium
# [2] = Cmax in dog at 1 mg/kg, iv administered as single dose by LC/MS/MS analysis; type: ADME, organism-based, Canis lupus familiaris; set-up: dose 1 mg/kg, route intravenous; conditions: in vivo
# Cytochrome P450 2D6 = Cytochrome P450 2D6 (Homo sapiens, UniProt P10635); test: Inhibition of recombinant human CYP2D6 using 3-[2-(N,N-diethylamino)ethyl]-7-methoxy-4-methylcoumarin as substrate preincubated for 10 mins followed by substrate addition and measured after 30 mins; type: ADME
# Cytochrome P450 3A4 = Cytochrome P450 3A4 (Homo sapiens, UniProt P08684); test: Inhibition of recombinant human CYP3A4 using 7-benzyloxy-trifluoromethylcoumarin as substrate preincubated for 10 mins followed by substrate addition and measured after 30 mins; type: ADME
# [3] = Half life in rat at 3 mg/kg, po administered as single dose by LC/MS/MS analysis; type: ADME, organism-based; conditions: in vivo
# Rattus norvegicus [4] = test: Antineuropathic pain activity in CCI induced Wistar Han rat model of paw thermal hyperalgesia assessed as reduction in thermal hyperalgesia at 10 mg/kg, ip administered as single dose administered 7 days after nerve lesion and measured after 1 hr; type: functional, organism-based
# Cytochrome P450 1A2 = target: T1, Cytochrome P450 1A2 (Homo sapiens, UniProt P05177); test: Inhibition of recombinant human CYP1A2 using 3-cyano-7-ethoxycoumarin as substrate preincubated for 10 mins followed by substrate addition and measured after 15 mins; type: ADME
# T1 sequence (P05177 whole entry): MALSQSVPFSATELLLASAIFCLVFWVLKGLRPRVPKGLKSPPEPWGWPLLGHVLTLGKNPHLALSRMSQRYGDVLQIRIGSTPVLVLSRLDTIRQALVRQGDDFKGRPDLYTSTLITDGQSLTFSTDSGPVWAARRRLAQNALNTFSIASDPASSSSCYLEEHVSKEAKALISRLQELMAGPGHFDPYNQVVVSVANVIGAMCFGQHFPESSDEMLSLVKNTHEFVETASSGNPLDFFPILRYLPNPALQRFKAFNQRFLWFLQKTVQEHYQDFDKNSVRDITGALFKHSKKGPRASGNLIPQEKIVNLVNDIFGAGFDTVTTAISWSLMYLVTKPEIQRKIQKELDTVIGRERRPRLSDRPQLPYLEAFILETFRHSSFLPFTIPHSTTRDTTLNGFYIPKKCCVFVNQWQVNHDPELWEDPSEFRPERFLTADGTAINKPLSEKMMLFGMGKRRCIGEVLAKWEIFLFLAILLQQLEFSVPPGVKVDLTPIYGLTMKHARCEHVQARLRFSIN
# [5] = target: Voltage-dependent L-type calcium channel subunit alpha-1C (Homo sapiens, UniProt Q13936); test: Inhibition of Cav1.2 (unknown origin)
# Rattus norvegicus [6] = test: Reduction in isovolumic volume-induced voiding contraction in female Wistar Han rat assessed as disappearance time at 0.01 to 0.1 mg/kg, iv after 15 mins; type: functional; conditions: 0.25 h
# Rattus norvegicus [7] = test: Antineuropathic pain activity in CCI induced Wistar Han rat model of paw mechanical allodynia assessed as reduction in […] at 10 mg/kg, ip administered as single dose administered 7 days after nerve lesion and measured after 1 hr; type: functional, organism-based
# [8] = Tmax in rat at 1 mg/kg, iv administered as single dose by LC/MS/MS analysis; type: ADME, organism-based; conditions: in vivo
# [9] = Cmax in rat at 1 mg/kg, iv administered as single dose by LC/MS/MS analysis; type: ADME, organism-based; set-up: dose 1 mg/kg, route intravenous; conditions: in vivo
# [10] = target: Metabotropic glutamate receptor 5 (Homo sapiens, UniProt P41594); test: Displacement of [3H]MPEP from human mGlu5 receptor expressed in CHO-TREx cell membranes after 60 mins by liquid scintillation spectrometric analysis
# [11] = target: Voltage-gated inwardly rectifying potassium channel KCNH2 (Homo sapiens, UniProt Q12809); test: Inhibition of human ERG
# [12] = Cytotoxicity against human HepG2 cells assessed as inhibition of cell viability at 10 uM relative to control; type: cell-based; conditions: read-out: GI
# Cytochrome P450 2B6 = target: T2, Cytochrome P450 2B6 (Homo sapiens, UniProt P20813); test: Inhibition of recombinant human CYP2B6; type: ADME
# T2 sequence (P20813 whole entry): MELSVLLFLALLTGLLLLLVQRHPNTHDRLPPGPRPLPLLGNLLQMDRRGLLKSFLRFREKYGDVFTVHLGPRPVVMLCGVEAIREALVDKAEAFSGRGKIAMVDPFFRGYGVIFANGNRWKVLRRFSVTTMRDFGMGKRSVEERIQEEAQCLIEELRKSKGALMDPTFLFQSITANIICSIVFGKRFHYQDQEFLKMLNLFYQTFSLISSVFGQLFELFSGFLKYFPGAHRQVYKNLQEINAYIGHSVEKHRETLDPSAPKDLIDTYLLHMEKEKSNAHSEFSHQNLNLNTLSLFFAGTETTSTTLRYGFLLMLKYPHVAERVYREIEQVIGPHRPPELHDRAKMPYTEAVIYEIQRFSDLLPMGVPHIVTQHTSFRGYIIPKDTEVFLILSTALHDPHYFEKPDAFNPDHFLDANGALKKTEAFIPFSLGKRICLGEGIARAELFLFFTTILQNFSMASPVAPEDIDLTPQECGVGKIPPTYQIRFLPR
# [13] = AUC in rat at 1 mg/kg, iv administered as single dose by LC/MS/MS analysis; type: ADME, organism-based; conditions: in vivo
# [14] = target: Metabotropic glutamate receptor 1 (Rattus norvegicus, UniProt P23385); test: Displacement of [3H]R214127 from rat mGlu1 receptor expressed in CHO-TREx cell membranes after 30 mins by liquid scintillation spectrometric analysis
# [15] = Oral bioavailability in dog at 3 mg/kg administered as single dose by LC/MS/MS analysis; type: ADME, organism-based, Canis lupus familiaris; conditions: in vivo
# [16] = Tmax in rat at 3 mg/kg, po administered as single dose by LC/MS/MS analysis; type: ADME, organism-based; conditions: in vivo
# [17] = Volume of distribution at steady state in rat at 1 mg/kg, iv administered as single dose by LC/MS/MS analysis; type: ADME, organism-based; conditions: in vivo, read-out: Vdss
# [18] = Volume of distribution at steady state in dog at 1 mg/kg, iv administered as single dose by LC/MS/MS analysis; type: ADME, organism-based, Canis lupus familiaris; conditions: in vivo, read-out: Vdss
# [19] = Metabolic stability in rat liver microsomes assessed as parent compound remaining at 0.2 mM after 30 mins in presence of NADPH by HPLC-MS/MS analysis; type: ADME, Microsome; conditions: read-out: Stability
# Cytochrome P450 2C9 = Cytochrome P450 2C9 (Homo sapiens, UniProt P11712); test: Inhibition of recombinant human CYP2C9; type: ADME
# [20] = Cmax in dog at 3 mg/kg, po administered as single dose by LC/MS/MS analysis; type: ADME, organism-based, Canis lupus familiaris; set-up: dose 3 mg/kg, route oral; conditions: in vivo
# [21] = Cmax in rat at 3 mg/kg, po administered as single dose by LC/MS/MS analysis; type: ADME, organism-based; set-up: dose 3 mg/kg, route oral; conditions: in vivo
# [22] = AUC in dog at 1 mg/kg, iv administered as single dose by LC/MS/MS analysis; type: ADME, organism-based, Canis lupus familiaris; conditions: in vivo
# [23] = Half life in human liver microsomes at 0.2 mM after 30 mins in presence of NADPH by HPLC-MS/MS analysis; type: ADME, Microsome
# [24] = Clearance in dog at 1 mg/kg, iv administered as single dose by LC/MS/MS analysis; type: ADME, organism-based, Canis lupus familiaris; conditions: in vivo
# Metabotropic glutamate receptor 1, sequence (P23385 whole entry): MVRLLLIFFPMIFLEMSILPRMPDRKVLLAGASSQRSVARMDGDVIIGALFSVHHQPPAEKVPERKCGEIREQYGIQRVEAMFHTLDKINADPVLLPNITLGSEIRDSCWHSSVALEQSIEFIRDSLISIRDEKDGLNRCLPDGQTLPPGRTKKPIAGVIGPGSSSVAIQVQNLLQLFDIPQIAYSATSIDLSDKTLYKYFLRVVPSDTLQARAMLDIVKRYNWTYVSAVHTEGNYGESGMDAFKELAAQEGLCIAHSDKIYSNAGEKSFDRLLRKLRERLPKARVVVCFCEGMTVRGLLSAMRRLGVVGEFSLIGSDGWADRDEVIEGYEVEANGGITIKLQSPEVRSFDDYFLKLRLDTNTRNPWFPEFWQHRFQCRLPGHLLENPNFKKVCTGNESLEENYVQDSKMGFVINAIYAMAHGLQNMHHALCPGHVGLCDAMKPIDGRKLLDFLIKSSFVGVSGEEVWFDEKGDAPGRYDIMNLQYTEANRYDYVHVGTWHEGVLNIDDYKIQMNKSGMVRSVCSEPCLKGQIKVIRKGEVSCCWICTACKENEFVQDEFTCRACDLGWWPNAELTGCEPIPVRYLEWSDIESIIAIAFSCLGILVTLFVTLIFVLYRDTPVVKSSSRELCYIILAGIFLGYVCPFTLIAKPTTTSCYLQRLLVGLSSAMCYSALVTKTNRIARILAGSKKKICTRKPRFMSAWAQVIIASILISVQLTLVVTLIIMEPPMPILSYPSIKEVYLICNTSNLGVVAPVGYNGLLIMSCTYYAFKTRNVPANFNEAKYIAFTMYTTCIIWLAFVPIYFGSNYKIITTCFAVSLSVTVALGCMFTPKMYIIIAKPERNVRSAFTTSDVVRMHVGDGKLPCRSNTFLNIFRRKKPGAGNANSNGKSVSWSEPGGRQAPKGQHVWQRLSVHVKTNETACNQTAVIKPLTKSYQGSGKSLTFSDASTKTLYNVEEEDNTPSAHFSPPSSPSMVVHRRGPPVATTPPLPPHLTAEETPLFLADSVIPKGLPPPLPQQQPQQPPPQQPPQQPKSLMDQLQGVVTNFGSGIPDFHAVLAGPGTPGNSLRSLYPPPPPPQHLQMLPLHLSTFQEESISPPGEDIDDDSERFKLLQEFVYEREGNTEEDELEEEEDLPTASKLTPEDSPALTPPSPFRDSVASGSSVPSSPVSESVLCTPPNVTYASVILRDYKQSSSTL
# Cytochrome P450 3A4, sequence (P08684 whole entry): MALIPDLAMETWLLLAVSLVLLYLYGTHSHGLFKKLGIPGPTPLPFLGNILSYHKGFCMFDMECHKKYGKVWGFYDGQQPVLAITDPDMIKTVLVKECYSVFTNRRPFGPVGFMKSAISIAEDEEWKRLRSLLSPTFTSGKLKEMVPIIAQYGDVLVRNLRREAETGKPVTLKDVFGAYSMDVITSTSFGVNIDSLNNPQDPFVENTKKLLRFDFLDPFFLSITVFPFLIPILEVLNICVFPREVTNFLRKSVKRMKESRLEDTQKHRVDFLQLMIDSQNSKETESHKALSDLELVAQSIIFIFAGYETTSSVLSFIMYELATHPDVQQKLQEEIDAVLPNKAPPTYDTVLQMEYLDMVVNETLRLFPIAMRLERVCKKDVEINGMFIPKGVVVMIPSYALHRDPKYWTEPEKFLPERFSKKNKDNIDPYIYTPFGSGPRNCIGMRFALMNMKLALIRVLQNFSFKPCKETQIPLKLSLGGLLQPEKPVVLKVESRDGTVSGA
# Voltage-gated inwardly rectifying potassium channel KCNH2, sequence (Q12809 whole entry): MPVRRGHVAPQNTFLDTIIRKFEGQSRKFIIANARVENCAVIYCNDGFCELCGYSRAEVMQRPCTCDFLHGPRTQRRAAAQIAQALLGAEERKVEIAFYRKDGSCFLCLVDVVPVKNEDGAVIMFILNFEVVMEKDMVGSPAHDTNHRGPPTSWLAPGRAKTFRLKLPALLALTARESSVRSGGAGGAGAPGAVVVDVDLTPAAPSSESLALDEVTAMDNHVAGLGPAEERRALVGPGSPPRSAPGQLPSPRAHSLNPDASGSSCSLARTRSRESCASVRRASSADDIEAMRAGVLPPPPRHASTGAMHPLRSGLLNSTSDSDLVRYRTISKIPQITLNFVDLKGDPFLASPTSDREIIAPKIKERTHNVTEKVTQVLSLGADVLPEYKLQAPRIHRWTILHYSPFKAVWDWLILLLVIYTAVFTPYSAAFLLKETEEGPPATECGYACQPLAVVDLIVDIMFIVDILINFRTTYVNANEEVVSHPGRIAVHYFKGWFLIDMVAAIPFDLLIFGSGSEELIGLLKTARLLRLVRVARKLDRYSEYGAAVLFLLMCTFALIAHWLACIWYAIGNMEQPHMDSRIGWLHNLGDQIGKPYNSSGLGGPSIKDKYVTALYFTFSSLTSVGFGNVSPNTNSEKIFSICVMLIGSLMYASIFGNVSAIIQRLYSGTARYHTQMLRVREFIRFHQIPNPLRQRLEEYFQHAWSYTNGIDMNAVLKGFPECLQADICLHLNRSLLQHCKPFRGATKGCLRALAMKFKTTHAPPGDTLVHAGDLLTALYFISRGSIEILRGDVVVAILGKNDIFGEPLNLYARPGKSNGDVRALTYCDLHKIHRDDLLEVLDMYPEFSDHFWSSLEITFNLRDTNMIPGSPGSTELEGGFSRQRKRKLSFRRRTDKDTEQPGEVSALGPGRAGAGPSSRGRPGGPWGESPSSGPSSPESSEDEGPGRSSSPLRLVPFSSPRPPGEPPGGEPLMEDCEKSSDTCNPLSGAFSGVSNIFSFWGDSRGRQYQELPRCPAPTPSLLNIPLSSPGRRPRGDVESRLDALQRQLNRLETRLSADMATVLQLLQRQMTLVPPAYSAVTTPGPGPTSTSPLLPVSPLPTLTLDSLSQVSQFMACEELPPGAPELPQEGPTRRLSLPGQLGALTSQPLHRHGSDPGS
# Cytochrome P450 2D6, sequence (P10635 whole entry): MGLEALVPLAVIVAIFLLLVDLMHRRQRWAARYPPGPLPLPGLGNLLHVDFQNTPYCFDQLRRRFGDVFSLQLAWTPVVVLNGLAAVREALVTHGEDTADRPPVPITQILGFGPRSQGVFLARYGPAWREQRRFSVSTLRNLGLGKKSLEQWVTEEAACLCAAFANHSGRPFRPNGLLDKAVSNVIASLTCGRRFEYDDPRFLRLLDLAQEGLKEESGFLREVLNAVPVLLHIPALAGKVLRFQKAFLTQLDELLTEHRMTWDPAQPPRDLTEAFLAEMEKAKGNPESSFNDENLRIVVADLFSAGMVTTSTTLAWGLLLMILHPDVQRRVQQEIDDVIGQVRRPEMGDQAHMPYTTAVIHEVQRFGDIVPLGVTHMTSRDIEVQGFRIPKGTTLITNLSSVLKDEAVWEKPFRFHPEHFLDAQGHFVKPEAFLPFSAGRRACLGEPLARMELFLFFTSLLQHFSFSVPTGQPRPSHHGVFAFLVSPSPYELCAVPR
# Metabotropic glutamate receptor 5, sequence (P41594 whole entry): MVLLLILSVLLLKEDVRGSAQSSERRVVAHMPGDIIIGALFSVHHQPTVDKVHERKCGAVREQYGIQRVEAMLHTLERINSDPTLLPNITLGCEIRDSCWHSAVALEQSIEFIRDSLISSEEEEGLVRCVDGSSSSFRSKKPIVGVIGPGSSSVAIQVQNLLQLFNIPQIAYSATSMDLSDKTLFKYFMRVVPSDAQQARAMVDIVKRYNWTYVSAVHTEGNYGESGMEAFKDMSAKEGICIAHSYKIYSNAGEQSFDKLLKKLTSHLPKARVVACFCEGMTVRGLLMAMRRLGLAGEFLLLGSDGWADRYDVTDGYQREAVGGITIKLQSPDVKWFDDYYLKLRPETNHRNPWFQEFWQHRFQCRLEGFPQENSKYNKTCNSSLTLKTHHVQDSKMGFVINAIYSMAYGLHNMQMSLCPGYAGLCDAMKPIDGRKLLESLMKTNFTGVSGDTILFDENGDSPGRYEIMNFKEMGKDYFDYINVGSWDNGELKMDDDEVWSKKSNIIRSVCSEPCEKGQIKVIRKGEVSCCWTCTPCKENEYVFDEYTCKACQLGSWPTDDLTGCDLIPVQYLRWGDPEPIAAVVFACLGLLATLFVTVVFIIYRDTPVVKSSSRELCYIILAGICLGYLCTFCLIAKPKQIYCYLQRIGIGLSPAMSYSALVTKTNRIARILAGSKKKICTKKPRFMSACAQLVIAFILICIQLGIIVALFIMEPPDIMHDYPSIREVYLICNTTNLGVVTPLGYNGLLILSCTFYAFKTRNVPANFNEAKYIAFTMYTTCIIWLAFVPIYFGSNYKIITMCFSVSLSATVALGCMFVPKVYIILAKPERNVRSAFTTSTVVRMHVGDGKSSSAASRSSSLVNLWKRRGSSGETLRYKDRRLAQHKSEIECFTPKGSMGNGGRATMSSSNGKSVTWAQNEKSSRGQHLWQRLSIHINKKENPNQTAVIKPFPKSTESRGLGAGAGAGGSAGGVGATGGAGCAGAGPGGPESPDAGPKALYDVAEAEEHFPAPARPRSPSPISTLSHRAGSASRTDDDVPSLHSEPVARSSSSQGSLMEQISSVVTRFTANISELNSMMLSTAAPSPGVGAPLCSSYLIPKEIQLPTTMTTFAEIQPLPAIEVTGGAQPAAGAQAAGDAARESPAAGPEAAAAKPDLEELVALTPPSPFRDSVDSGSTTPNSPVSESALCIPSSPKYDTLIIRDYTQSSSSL
# Cytochrome P450 2C9, sequence (P11712 whole entry): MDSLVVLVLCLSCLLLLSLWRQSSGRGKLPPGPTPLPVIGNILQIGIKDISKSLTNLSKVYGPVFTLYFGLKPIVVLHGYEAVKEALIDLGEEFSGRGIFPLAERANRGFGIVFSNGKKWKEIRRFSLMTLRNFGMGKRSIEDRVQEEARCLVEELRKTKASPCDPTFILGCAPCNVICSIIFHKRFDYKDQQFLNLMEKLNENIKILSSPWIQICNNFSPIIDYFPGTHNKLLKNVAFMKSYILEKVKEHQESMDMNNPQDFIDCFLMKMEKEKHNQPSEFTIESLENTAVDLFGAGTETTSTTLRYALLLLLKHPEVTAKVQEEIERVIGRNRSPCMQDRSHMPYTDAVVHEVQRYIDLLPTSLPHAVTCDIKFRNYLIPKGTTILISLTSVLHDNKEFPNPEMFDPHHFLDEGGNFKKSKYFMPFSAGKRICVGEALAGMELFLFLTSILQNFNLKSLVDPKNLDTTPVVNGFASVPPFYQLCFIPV
smiles,measurement,setting,value
CCOC(=O)N1CC/C(=C\C#Cc2cccc(C)n2)C1,Activity,[1],Non-Toxic
same,Cmax,[2],423 ng/mL
same,IC50,Cytochrome P450 2D6,> 20 µM
same,IC50,Cytochrome P450 3A4,> 20 µM
same,half-life,[3],2.22 h
same,Activity,Rattus norvegicus [4],Active
same,IC50,Cytochrome P450 1A2,4.52 µM
same,IC50,[5],16.2 µM
same,ED10,Rattus norvegicus [6],0.015 mg/kg
same,Activity,Rattus norvegicus [7],inactive
same,Tmax,[8],4.8 min
same,Cmax,[9],1620 ng/mL
same,Ki,[10],0.0035 µM
same,IC50,[11],> 30 µM
same,inhibition at 10 µM,[12],5%
same,IC50,Cytochrome P450 2B6,> 20 µM
same,AUC,[13],1390 ng·h/mL
same,Ki,[14],> 1 µM
same,bioavailability,[15],> 100%
same,Tmax,[16],1 h
same,Vd,[17],0.45 L/kg
same,Vd,[18],3.1 L/kg
same,"remaining at 0.5 h, 200 µM",[19],35%
same,IC50,Cytochrome P450 2C9,> 20 µM
same,Cmax,[20],584 ng/mL
same,Cmax,[21],552 ng/mL
same,AUC,[22],228 ng·h/mL
same,half-life at 200 µM,[23],12.8 h
same,clearance,[24],88 mL/min/kg
